Columns and labels:
[1] = Molar enthalpy of transition or fusion; conditions: Crystal; DSC
[2] = Crystal; DTA
[3] = xn = mol fraction of the nth substance listed; conditions: 101 kPa, Liquid, Vibrating tube method

CCCCCCCCCCCCCCCCCC(=O)O [octadecanoic acid]
Conditions	Molar enthalpy of transition or fusion [kJ/mol]	Normal melting temperature [°C]
[1]	61.4	–
[2]	–	70.52

C[N+](C)(C)C.[Cl-] [tetramethylammonium chloride]
Conditions	Normal melting temperature [°C]
[2]	339.72

CCCCCCCCCC(=O)O [decanoic acid]
Conditions	Molar enthalpy of transition or fusion [kJ/mol]	Normal melting temperature [°C]
[1]	27.5	–
[2]	–	31.60

CCCCCCCCCCCCCCCC(=O)O [hexadecanoic acid]
Conditions	Molar enthalpy of transition or fusion [kJ/mol]	Normal melting temperature [°C]
[1]	51	–
[2]	–	63.69

CCCCCCCCCCCC(=O)O [dodecanoic acid]
Conditions	Molar enthalpy of transition or fusion [kJ/mol]	Normal melting temperature [°C]
[1]	37.8	–
[2]	–	44.33

CC[N+](CC)(CC)CC.[Cl-] [tetraethylammonium chloride] + O
mass density [kg/m3], [3]
Conditions	298.15 K	308.15 K	318.15 K	328.15 K	338.15 K	348.15 K	358.15 K
x1 = 0.0173	1000.2	996.7	992.3	–	–	–	–
x1 = 0.0403	1005.7	1001.1	996.5	990.9	982.8	971.4	953.1
x1 = 0.0727	1014.9	1009.5	1003.9	998.3	992.2	985.7	977.1
x1 = 0.1213	1027	1020.8	1014.4	1008	1001.5	995.1	988.4
x1 = 0.1994	1035.4	1029.1	1022.8	1016.4	1010	1003.4	997.2

CCCCCCCCCCCCCC(=O)O [tetradecanoic acid]
Conditions	Molar enthalpy of transition or fusion [kJ/mol]	Normal melting temperature [°C]
[1]	41.3	–
[2]	–	53.88

CC[N+](CC)(CC)CC.[Cl-] [tetraethylammonium chloride]
Conditions	Molar enthalpy of transition or fusion [kJ/mol]	Normal melting temperature [°C]
[1]	51.2	–
[2]	–	253.63

C[N+](C)(C)C.[Cl-] [tetramethylammonium chloride] + O
mass density [kg/m3], [3]
Conditions	298.15 K	308.15 K	318.15 K	328.15 K	338.15 K	348.15 K	358.15 K
x1 = 0.026	1001.5	998.1	–	–	–	–	–
x1 = 0.06	1005.7	1001.7	997.5	991.3	985.1	975.6	959.5
x1 = 0.1062	1012.8	1008.6	1004.1	999.5	993.1	986.6	977.1
x1 = 0.1731	1022.5	1018.1	1013.5	1008.9	1004	998.9	993
x1 = 0.2831	1034.1	1029.5	1025	1020.3	1015.7	1010.9	1006.1

Reference: the NIST ThermoML archive (doi:10.1016/j.fluid.2017.04.007)
